# How the values were obtained:
# [1] = 0.16 pmol/kg per minute; cited from earlier work
# [2] = monotherapy, cited from earlier work
# GLP-1 receptor = GLP-1 receptor (Homo sapiens, UniProt P43220); details: cited from earlier work
# [3] = in vivo; cited from earlier work
# [4] = test system: DIO (diet induced obesity) mice; experiment: DIO (diet induced obesity) mice, single subcutaneous injection, NASH; type: in vivo; details: single dosage of 100 nmol/kg, over 26 days
# Description: In still further experiments to confirm that contemplated compounds presented herein are also effective as modulators for hepatic metabolism, and particularly in the treatment and even at least partial reversion of NASH (non-alcoholic […]), the inventors tested selected compounds in DIO (diet induced obesity) mice. […] The body weight of all treated animals was recorded over 26 days, and average body weight over time for 16 and 26 days are shown in FIG. 34A and FIG. 34B, respectively.
# To investigate liver function and metabolism, liver weight was determined at the end of the study and results are shown in FIG. 38. […] In addition, liver function was assessed at the end of the study by testing AST (aspartate aminotransferase) and ALT (alanine transaminase).
# In still further tests for hepatic metabolic modulation, the inventors also determined total cholesterol and LDL cholesterol at the end of the study, and exemplary results are shown in FIG. 41 (for total cholesterol) and FIG. 42 (for LDL cholesterol). […] As diet induced obesity is also often associated with inflammation, the inventors also measured levels of selected pro-inflammatory cytokines. Here, IL-1α and IL-6 levels were determined at the end of the study.
# GLP-1 receptor, sequence (P43220 24-463, species assumed): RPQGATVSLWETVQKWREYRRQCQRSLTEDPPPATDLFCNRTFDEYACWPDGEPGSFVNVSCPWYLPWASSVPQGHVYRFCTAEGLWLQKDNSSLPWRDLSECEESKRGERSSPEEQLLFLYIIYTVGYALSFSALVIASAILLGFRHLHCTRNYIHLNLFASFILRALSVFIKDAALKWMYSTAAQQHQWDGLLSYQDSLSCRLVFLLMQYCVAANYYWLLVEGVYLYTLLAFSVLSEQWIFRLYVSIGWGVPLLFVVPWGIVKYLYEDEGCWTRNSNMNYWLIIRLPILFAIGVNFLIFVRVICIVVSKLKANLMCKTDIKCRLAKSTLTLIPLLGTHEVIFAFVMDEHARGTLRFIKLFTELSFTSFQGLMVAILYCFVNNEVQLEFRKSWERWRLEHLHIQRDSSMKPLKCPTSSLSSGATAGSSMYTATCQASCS
substance,measurement,setting,value
GLP-1: naturally occurring hormone released by L cells in the lower intestine,adverse events,[1],vomiting within eight minutes
albiglutide,decrease in HbA1c from baseline,"[2]; 30 mg weekly dose, week 52",−0.7%
same,change from baseline of HbA1c,[2]; 50 mg weekly dose,−0.9%
same,GLP-1 receptor affinity,GLP-1 receptor,20 nM
same,half-life,[3],140 to 190 h
semaglutide [reference compound],body weight,[4],effective in reduction of body weight

# — US12551541B2, “Albumin bound macromolecule tri-agonist activating GLP 1/GIP/glucagon receptors and methods therefor” (AlbuNext, LLC, priority 2023, dated 2026)
